Patent publication US4596710A, “Gallium chloride as a new anti-cancerous drug” (priority 1981, dated 1986)

Legend:
[1] = Clinical and biological tolerance in patients; details: Adriamycine 50 mg + 5-fluoro-uracil 900 mg + Endoxan 900 mg; before gallium chloride; alcoholic patient
Method: Mrs. […] Post-operative chemotherapy (5-fluoro-uracil and endoxan) was then effected up to April 1979. At that time, […] underwent a second operation with excision of the remaining cervix and omentectomy. […] Cobalt therapy was then carried out from Nov. 5th, 1979 to Feb. 5th, 1980 on the abdomen, pelvis and diaphragm cupolas, then further chemotherapy (hexamethylmelamine) from August to October 1980. […] Treatment by gallium chloride started on Nov. 1 st, 1980 at the posology of 300 mg per day per os in three doses of 100 mg. […] An echotomograph on Dec. […] A third echotomograph was made on Jan. […] On Mar.
The treatment by gallium chloride was started on May 15th, 1981, at the posology of 600 mg/24 hours up to Sept. 20th, 1981, in association with a heparinotherapy at mini-doses. This heparinotherapy had been prescribed to prevent a phlebitis or pulmonary embolism following the surgical operation of April 1981 and had not been interrupted in order not to provoke the phenomenon of tumoral flare-up. [Calciparin (heparin calcium salt) 0.2 ml, 3 times per day by sub-cutaneous route]. […] On Sept. […] This was the case. . . […] 29th, 1981. […] Up to Nov. […] It was from Sept.
HOT... […] , was operated on May 14th, 1981 for an adenocarcinoma of the colon. […] An almost total colectomy was carried out, leaving 20 cm of sigmoid and a resection of the small bowel over a length of 15 cm. […] On Oct. […] An exploratory laparotomy was made on Nov. […] 7th, 1982.
Gallium chloride therapy was started on Sept.

[2] = cited from earlier work
[3] = Anghileri 1973; cited from earlier work

Compound | pancytopenia after combination chemotherapy, 2nd patient [1] | other results
O=c1[nH]cc(F)c(=O)[nH]1 [5-fluoro-uracil, reference compound] | a pancytopenia which would persist for several months | 
COc1cccc2c1C(=O)c1c(O)c3c(c(O)c1C2=O)C[C@@](O)(C(=O)CO)C[C@@H]3O[C@H]1C[C@H](N)[C@H](O)[C@H](C)O1 [Adriamycine, reference compound] | a pancytopenia which would persist for several months | 
O=P1(N(CCCl)CCCl)NCCCO1 (stereo not drawn) [Endoxan, reference compound] | a pancytopenia which would persist for several months | 
O=[N+]([O-])[O-].O=[N+]([O-])[O-].O=[N+]([O-])[O-].[Ga+3] [gallium nitrate] |  | renal toxicity ([2]; human therapeutics): excessive renal toxicity; results of tests in human therapeutics ([2]; in vivo): minor results
gallium |  | displacement of magnesium from the cell [3]: capable of displacing magnesium from the cell
